Measured values published in paper PMC8474115 (Journal of Medicinal Chemistry, 2021).
Structures can show the parent of a compound that is named as a salt. Where two headings read alike, the source gives them in different places.

Key:
Opiate κ (OP2, KOP) = biological target: T1, Opiate κ (OP2, KOP) (Homo sapiens, UniProt P41145); test: Eurofins SafetyScreen panel; assay type: binding
T1 construct: Eurofins (contract assay)

Protein Tyr Kinase, LCK = biological target: T2, Protein Tyr Kinase, LCK (Homo sapiens, UniProt P06239); test: Eurofins SafetyScreen panel; assay type: biochemical
T2 construct: Eurofins (contract screening, SafetyScreen panel) PP223

Dopamine D1 = biological target: T3, Dopamine D1 (Homo sapiens, UniProt P21728); test: Eurofins SafetyScreen panel; assay type: binding
T3 construct: purchased Eurofins (Panlabs) SafetyScreen87 Panel

[1] = biological target: Ca Channel L-Type, Phenylalkylamine (Rattus norvegicus, UniProt P22002); test: Eurofins SafetyScreen panel; assay type: binding
Adrenergic α2B = biological target: T4, Adrenergic α2B (Homo sapiens, UniProt P18089); test: Eurofins SafetyScreen panel; assay type: binding
T4 construct: Eurofins (contract screening, SafetyScreen panel) PP223
T4 sequence (P18089 1-450): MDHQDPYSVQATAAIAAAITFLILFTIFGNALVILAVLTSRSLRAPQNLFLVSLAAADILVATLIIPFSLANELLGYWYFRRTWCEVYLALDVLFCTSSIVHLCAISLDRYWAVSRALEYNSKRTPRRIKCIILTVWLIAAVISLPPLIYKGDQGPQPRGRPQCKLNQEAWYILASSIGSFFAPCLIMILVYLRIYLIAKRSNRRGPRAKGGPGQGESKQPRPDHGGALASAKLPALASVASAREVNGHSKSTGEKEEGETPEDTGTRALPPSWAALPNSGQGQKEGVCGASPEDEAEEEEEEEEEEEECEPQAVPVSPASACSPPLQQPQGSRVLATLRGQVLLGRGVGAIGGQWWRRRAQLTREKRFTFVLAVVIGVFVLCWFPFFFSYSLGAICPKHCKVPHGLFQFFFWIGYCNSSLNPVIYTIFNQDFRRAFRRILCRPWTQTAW

Serotonin 5-HT2C = biological target: T5, Serotonin 5-HT2C (Homo sapiens, UniProt P28335); test: Eurofins SafetyScreen panel; assay type: binding
T5 construct: Eurofins (contract assay)
T5 sequence (P28335 33-458): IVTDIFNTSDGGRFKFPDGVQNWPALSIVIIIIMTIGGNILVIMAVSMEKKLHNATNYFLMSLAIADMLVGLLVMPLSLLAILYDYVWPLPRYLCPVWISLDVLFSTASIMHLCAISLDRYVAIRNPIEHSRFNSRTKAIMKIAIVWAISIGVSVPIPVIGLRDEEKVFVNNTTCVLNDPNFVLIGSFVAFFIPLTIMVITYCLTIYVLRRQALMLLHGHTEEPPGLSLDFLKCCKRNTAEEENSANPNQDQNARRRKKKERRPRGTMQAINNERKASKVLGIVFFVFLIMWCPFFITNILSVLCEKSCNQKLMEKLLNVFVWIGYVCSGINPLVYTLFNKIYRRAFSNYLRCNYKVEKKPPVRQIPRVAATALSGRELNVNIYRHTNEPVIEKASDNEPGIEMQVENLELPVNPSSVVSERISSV

Potassium Channel [hERG] = Potassium Channel [hERG] (Homo sapiens, UniProt Q12809); test: biochemical
GABA Transporter = biological target: T6, GABA Transporter (Rattus norvegicus, UniProt P23978); test: Eurofins SafetyScreen panel; assay type: binding
T6 construct: Eurofins (contract assay)

MAO-A = biological target: T7, MAO-A (Homo sapiens, UniProt P21397); test: Eurofins SafetyScreen panel; assay type: biochemical
T7 construct: Eurofins

Muscarinic M3 = biological target: T8, Muscarinic M3 (Homo sapiens, UniProt P20309); test: Eurofins SafetyScreen panel; assay type: binding
T8 construct: Eurofins (contract screening, SafetyScreen panel) PP223

Adenosine A2A = biological target: T9, Adenosine A2A (Homo sapiens, UniProt P29274); test: Eurofins SafetyScreen panel; assay type: binding
T9 construct: Eurofins (contract screening, SafetyScreen panel) PP223

Serotonin 5-HT2A = biological target: T10, Serotonin 5-HT2A (Homo sapiens, UniProt P28223); test: Eurofins SafetyScreen panel; assay type: binding
T10 construct: Eurofins (contract assay)

PPARγ = biological target: T11, PPARγ (Homo sapiens, UniProt P37231); test: Eurofins SafetyScreen panel; assay type: binding
T11 construct: Eurofins (contract assay)

Cannabinoid CB2 = biological target: T12, Cannabinoid CB2 (Homo sapiens, UniProt P34972); test: Eurofins SafetyScreen panel; assay type: binding
T12 construct: purchased Eurofins (Panlabs) SafetyScreen87 Panel

Serotonin 5-HT2B = biological target: T13, Serotonin 5-HT2B (Homo sapiens, UniProt P41595); test: Eurofins SafetyScreen panel; assay type: binding
T13 construct: Eurofins (contract assay)

Adrenergic α1B = biological target: T14, Adrenergic α1B (Rattus norvegicus, UniProt P15823); test: Eurofins SafetyScreen panel; assay type: binding
T14 construct: Eurofins (contract screening, SafetyScreen panel) PP223

Endothelin ETA = biological target: T15, Endothelin ETA (Homo sapiens, UniProt P25101); test: Eurofins SafetyScreen panel; assay type: binding
T15 construct: purchased Eurofins (Panlabs) SafetyScreen87 Panel

Opiate σ1 (OP1, DOP) = biological target: T16, Opiate σ1 (OP1, DOP) (Homo sapiens, UniProt P41143); test: Eurofins SafetyScreen panel; assay type: binding; details: read-out: %inh
T16 construct: Eurofins (contract assay)

Chemokine CCR1 = biological target: T17, Chemokine CCR1 (Homo sapiens, UniProt P32246); test: Eurofins SafetyScreen panel; assay type: binding
T17 construct: purchased Eurofins (Panlabs) SafetyScreen87 Panel

Adrenergic β1 = biological target: T18, Adrenergic β1 (Homo sapiens, UniProt P08588); test: Eurofins SafetyScreen panel; assay type: binding
T18 construct: Eurofins (contract screening, SafetyScreen panel) PP223

Cannabinoid CB1 = biological target: T19, Cannabinoid CB1 (Homo sapiens, UniProt P21554); test: Eurofins SafetyScreen panel; assay type: binding
T19 construct: purchased Eurofins (Panlabs) SafetyScreen87 Panel

Serotonin 5-HT5A = biological target: T20, Serotonin 5-HT5A (Homo sapiens, UniProt P47898); test: Eurofins SafetyScreen panel; assay type: binding
T20 construct: Eurofins (contract assay) 272100

Neuropeptide Y Y1 = biological target: T21, Neuropeptide Y Y1 (Homo sapiens, UniProt P25929); test: Eurofins SafetyScreen panel; assay type: binding
T21 construct: Eurofins (contract screening, SafetyScreen panel) PP223

[2] = read-out: %inh, 10 μM, additional batch

T1 sequence (P41145 whole entry): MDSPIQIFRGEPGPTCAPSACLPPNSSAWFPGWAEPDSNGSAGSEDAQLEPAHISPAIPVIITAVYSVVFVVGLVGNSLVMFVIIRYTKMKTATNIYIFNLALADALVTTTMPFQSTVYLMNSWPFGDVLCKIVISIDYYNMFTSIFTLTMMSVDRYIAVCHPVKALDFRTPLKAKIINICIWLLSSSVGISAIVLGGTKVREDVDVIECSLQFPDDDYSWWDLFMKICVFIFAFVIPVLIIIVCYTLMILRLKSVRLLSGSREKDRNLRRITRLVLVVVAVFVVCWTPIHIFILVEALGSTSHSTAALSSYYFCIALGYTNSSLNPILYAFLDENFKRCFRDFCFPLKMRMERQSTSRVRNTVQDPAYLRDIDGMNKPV
Sequence of Ca Channel L-Type, Phenylalkylamine (P22002 whole entry): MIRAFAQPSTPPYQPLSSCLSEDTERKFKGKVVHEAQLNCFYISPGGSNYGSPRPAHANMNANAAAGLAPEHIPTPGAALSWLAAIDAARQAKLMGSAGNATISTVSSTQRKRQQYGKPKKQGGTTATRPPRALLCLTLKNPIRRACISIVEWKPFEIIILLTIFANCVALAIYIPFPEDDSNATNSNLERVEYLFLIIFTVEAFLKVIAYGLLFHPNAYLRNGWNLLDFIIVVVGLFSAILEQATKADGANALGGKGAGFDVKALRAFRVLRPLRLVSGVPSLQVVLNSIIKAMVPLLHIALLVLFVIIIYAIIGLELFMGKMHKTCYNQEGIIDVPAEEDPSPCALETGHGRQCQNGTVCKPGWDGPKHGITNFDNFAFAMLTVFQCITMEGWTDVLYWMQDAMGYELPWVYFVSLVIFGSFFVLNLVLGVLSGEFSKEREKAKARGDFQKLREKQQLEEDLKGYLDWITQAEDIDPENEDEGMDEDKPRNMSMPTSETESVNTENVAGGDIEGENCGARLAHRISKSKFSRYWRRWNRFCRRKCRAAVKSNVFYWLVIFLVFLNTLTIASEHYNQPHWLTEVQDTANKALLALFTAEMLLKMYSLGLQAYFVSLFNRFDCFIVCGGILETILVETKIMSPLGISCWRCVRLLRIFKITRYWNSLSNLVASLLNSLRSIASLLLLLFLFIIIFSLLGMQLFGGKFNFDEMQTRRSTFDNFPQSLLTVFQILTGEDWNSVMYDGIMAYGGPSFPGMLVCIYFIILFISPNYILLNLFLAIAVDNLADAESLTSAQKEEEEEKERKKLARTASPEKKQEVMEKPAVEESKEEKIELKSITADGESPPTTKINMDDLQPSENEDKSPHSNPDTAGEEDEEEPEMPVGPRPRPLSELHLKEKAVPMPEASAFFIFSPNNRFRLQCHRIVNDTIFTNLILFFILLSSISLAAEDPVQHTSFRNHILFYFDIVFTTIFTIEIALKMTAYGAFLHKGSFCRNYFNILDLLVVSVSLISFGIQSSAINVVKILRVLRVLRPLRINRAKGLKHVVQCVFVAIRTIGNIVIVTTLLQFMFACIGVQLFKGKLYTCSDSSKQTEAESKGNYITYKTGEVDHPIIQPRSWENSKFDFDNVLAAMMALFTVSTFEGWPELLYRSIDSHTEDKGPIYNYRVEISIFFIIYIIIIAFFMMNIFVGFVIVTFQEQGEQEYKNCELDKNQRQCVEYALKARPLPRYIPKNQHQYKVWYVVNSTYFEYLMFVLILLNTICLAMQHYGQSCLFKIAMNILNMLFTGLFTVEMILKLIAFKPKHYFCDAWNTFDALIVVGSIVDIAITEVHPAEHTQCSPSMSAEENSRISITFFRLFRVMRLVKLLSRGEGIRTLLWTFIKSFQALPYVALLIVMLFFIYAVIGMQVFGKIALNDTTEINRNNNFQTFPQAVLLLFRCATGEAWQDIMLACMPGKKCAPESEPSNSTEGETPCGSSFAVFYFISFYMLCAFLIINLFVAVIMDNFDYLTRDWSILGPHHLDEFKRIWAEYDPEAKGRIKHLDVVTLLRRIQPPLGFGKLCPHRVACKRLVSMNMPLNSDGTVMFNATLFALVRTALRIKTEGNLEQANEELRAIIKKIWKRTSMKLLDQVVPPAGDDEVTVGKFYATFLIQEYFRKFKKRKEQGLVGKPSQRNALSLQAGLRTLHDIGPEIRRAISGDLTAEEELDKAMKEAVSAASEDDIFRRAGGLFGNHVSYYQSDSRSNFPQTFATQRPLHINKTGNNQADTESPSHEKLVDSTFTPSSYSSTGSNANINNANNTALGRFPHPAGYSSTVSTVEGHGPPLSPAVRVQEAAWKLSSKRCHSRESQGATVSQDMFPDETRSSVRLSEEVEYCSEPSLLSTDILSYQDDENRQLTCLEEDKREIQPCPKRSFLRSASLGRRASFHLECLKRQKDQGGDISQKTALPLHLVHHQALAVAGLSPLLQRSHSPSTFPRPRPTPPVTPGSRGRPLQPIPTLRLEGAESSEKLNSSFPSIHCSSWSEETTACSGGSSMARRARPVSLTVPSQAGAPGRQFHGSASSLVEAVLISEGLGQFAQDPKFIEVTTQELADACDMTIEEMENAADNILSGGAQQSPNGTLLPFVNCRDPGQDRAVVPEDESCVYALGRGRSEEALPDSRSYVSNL
T18 sequence (P08588 whole entry): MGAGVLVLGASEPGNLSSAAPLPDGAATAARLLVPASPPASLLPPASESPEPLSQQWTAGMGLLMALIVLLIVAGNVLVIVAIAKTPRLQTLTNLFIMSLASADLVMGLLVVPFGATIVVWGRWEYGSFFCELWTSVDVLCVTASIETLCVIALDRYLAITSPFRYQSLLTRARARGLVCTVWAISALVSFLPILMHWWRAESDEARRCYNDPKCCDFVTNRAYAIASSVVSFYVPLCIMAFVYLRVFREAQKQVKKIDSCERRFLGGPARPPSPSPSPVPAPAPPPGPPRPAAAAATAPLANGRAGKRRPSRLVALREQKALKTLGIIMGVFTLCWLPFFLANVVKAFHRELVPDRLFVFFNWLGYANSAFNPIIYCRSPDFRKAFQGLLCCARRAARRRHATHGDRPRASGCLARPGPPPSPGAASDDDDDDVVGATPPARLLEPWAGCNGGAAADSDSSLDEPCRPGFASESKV
T13 sequence (P41595 whole entry): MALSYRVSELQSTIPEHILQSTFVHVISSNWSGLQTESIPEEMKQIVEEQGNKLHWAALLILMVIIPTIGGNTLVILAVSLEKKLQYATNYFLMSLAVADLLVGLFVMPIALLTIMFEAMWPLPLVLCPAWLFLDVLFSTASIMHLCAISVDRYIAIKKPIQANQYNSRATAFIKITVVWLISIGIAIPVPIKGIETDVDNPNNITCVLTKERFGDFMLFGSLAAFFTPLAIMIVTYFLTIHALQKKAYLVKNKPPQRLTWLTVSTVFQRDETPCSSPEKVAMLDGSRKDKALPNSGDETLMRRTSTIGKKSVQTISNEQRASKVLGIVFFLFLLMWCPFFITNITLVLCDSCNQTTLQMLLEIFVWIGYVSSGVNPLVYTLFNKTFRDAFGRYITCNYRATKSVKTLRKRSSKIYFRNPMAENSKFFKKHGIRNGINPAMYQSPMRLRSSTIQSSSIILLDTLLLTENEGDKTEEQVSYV
T20 sequence (P47898 whole entry): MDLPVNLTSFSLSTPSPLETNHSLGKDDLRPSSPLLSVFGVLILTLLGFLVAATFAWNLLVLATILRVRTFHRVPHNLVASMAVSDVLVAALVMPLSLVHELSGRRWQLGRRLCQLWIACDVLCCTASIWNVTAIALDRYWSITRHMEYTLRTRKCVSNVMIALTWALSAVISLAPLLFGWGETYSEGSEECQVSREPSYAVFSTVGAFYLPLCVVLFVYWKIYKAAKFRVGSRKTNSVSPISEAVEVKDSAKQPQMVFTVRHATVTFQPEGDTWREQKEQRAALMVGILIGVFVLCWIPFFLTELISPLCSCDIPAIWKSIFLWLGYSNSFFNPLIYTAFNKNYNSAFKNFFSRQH
T9 sequence (P29274 whole entry): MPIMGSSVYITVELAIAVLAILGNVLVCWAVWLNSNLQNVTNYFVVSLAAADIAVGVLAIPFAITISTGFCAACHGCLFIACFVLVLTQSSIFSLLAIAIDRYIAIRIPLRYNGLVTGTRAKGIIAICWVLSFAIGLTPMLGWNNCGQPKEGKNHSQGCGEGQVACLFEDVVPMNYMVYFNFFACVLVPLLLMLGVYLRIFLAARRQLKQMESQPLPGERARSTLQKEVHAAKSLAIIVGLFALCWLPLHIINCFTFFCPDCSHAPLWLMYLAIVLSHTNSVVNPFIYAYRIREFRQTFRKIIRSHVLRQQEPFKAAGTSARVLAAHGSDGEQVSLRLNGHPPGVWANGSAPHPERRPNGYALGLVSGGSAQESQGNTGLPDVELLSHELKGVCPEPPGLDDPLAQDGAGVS
T16 sequence (P41143 whole entry): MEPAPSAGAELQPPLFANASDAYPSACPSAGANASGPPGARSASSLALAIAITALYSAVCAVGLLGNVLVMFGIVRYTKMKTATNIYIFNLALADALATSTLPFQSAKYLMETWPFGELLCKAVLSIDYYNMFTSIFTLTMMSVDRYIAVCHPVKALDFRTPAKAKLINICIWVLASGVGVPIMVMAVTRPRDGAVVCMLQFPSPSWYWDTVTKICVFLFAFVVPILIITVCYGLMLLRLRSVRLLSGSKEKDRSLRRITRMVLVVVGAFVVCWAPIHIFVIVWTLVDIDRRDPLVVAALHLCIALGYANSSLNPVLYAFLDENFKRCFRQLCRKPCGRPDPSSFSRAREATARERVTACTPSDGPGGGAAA
T12 sequence (P34972 whole entry, looked up): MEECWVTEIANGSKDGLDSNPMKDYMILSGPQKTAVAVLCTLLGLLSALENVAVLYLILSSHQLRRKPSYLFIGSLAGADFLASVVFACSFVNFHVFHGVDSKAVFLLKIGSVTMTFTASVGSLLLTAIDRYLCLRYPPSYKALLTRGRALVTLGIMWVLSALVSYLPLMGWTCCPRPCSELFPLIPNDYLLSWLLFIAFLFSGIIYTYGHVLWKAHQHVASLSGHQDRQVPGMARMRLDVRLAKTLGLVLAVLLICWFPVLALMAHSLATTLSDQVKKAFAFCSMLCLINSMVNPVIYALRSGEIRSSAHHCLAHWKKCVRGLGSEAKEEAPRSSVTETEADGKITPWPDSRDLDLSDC

Work on O=S(=O)(c1cccc(F)c1)n1ccc2c(N3CCNCC3)nc3ccccc3c21 [FPPQ, 1-[(3-Fluorophenyl)sulfonyl]-4-(piperazin-1-yl)-1H-pyrrolo[3,2-c]quinoline dihydrochloride] yielded an IC50 (Opiate κ (OP2, KOP)) of 8180 nM, a Ki (Opiate κ (OP2, KOP)) of 3270 nM and an inhibition at 0.1 µM (Opiate κ (OP2, KOP); read-out: %inh, 0.1 μM) of 5%. It also gave an inhibition at 1 µM (Opiate κ (OP2, KOP); read-out: %inh, 1 μM) of 8%, an inhibition at 10 µM (Opiate κ (OP2, KOP); read-out: %inh, 10 μM) of 55% and an inhibition at 10 µM (Opiate κ (OP2, KOP); [2]) of 64%. The inhibition at 100 µM (Opiate κ (OP2, KOP); read-out: %inh, 100 μM) was 99%, the inhibition at 10 µM (Protein Tyr Kinase, LCK) was 6% and the inhibition at 10 µM (Dopamine D1) was 27%. For the same compound, the inhibition at 0.01 µM ([1]; 10 nM) was -2%, the inhibition at 0.1 µM ([1]; 0.1 μM) was 9% and the inhibition at 1 µM ([1]; 1 μM) was 48%. The inhibition at 10 µM [1] was 78%, the inhibition at 10 µM ([1]; additional batch) was 85% and the IC50 (Adrenergic α2B) was 10100 nM. For the same compound, the Ki (Adrenergic α2B) was 4610 nM, the inhibition at 0.1 µM (Adrenergic α2B; read-out: %inh, 0.1 μM) was 1% and the inhibition at 1 µM (Adrenergic α2B; read-out: %inh, 1 μM) was -4%. For the same compound, the inhibition at 10 µM (Adrenergic α2B; read-out: %inh, 10 μM) was 43%, the inhibition at 10 µM (Adrenergic α2B; [2]) was 53% and the inhibition at 100 µM (Adrenergic α2B; read-out: %inh, 100 μM) was 108%. For the same compound, the IC50 (Serotonin 5-HT2C) was 1580 nM, the Ki (Serotonin 5-HT2C) was 830 nM and the inhibition at 0.01 µM (Serotonin 5-HT2C; read-out: %inh, 10 nM, additional batch) was -5%. The inhibition at 0.1 µM (Serotonin 5-HT2C; read-out: %inh, 0.1 μM) was -6%, the inhibition at 1 µM (Serotonin 5-HT2C; read-out: %inh, 1 μM) was 32% and the inhibition at 10 µM (Serotonin 5-HT2C; read-out: %inh, 10 μM) was 94%. It also gave an inhibition at 10 µM (Serotonin 5-HT2C; [2]) of 93%, an IC50 (Potassium Channel [hERG]) of 1150 nM and an inhibition at 10 µM (GABA Transporter) of 3%. The inhibition at 10 µM (MAO-A) was 12%, the inhibition at 10 µM (Muscarinic M3) was 43% and the inhibition at 10 µM (Adenosine A2A) was 1%. For the same compound, the inhibition at 10 µM (Serotonin 5-HT2A) was 50%, the inhibition at 10 µM (PPARγ) was 28% and the inhibition at 10 µM (Cannabinoid CB2) was -21%. It also gave an IC50 (Serotonin 5-HT2B) of 260 nM, a Ki (Serotonin 5-HT2B) of 170 nM and an inhibition at 0.01 µM (Serotonin 5-HT2B; read-out: %inh, 10 nM) of 13%. The inhibition at 0.1 µM (Serotonin 5-HT2B; read-out: %inh, 0.1 μM) was 31%, the inhibition at 1 µM (Serotonin 5-HT2B; read-out: %inh, 1 μM) was 71% and the inhibition at 10 µM (Serotonin 5-HT2B; read-out: %inh, 10 μM) was 96%. It also gave an inhibition at 10 µM (Serotonin 5-HT2B; [2]) of 97%, an inhibition at 10 µM (Adrenergic α1B) of 29% and an inhibition at 10 µM (Endothelin ETA) of 3%. The inhibition at 10 µM (Opiate σ1 (OP1, DOP)) was 7%, the inhibition at 10 µM (Chemokine CCR1) was -6% and the IC50 (Adrenergic β1) was 300 nM. The Ki (Adrenergic β1) was 170 nM, the inhibition at 0.01 µM (Adrenergic β1; read-out: %inh, 10 nM) was -3% and the inhibition at 0.1 µM (Adrenergic β1; read-out: %inh, 0.1 μM) was 27%. The inhibition at 1 µM (Adrenergic β1; read-out: %inh, 1 μM) was 75%, the inhibition at 10 µM (Adrenergic β1; [2]) was 102% and the inhibition at 10 µM (Cannabinoid CB1) was 35%. For the same compound, the IC50 (Serotonin 5-HT5A) was 5580 nM, the inhibition at 0.1 µM (Serotonin 5-HT5A; read-out: %inh, 0.1 μM) was 1% and the inhibition at 10 µM (Serotonin 5-HT5A; read-out: %inh, 10 μM) was 64%. For the same compound, the inhibition at 10 µM (Serotonin 5-HT5A; [2]) was 61%, the inhibition at 100 µM (Serotonin 5-HT5A; read-out: %inh, 100 μM) was 98% and the inhibition at 10 µM (Neuropeptide Y Y1) was 37%.
